The text below walks through data of patent publication US8097585B2, “Methods of treating inflammation by administration of heme oxygenase-1 and products of heme degradation” (priority 2002, dated 2012).

The subject of assay [1] is B6AF1 splenocytes. The assay can be described thus: Mixed lymphocyte culture (irradiated DBA/2 splenocytes as stimulators) in vitro. The class given is cell-based, mouse. Conditions: biliverdin 10 μM. As for the experimental part:
Mixed lymphocyte culture (MLC). Irradiated (25Gy, ^137Cs) DBA/2 splenocytes (5×10^5/well) were co-cultured with responders (5×10^5/well) in a 96 well round bottom plates for 3 days at 37° C., 95% air with 5% CO2. When using cells from cardiac recipients as responders, the co-culture period was 3 days without any further in vitro treatment. ^3H-thymidine (1 μCi/well) was added 16 hours before termination of cell culture, and ^3H-thymidine incorporation was measured.

Assay [2] deals with HO-1. Description: HO-1 induction during intestinal I/R injury. The class given is in vivo, LEW rats. Conditions: BV treatment. The protocol:
HO-1 Induction During Intestinal I/R Injury. Since HO-1 regulates heme catalysis and BV production, exogenously provided BV may influence endogenous HO-1 induction in BV-treated recipients. In the normal intestine, HO-1 protein expression was absent. Ischemia/reperfusion injury was associated with a gradual increase of HO-1 expression in air-treated grafts, reaching maximum level between 6 and 24 hours following reperfusion.

Assay [3] relates to nitric oxide. The assay can be described thus: Serum nitrite/nitrate, SITx with preserved intestine. The assay is classed as in vivo, LEW rats. As for the experimental part: Detection of Serum Mediators. Serum samples from the recipients transplanted with preserved intestine were taken at 3 and 12 hours after reperfusion and stored at […] until evaluation. Serum IL-6 was determined using a rat enzyme-linked immunoassay (ELISA) kits as described by the manufacturer (R & D Systems, Inc., Cambridge, Mass.). To monitor the production of nitric oxide, the stable end products of NO metabolism, serum nitrite/nitrate levels, were measured 12 hours after engraftment using a commercially available test kit (Cayman, Ann Arbor, Mich.). In this assay system, nitrate is reduced to nitrite using nitrate reductase, and the nitrite concentration of the sample is subsequently measured using the Griess reaction.

In assay [4] the test system is HO-1. The assay can be described thus: HO-1 expression in colonic tissue during DSS-colitis (Western blot, semi-quantitative PCR). The assay is classed as in vivo, C57BL/6 mice. The settings on record: CoPP 5 mg/kg i.p. daily, entire 7 day period. The protocol: Western Blot Analysis. Tissue samples from the distal colon of the animals were removed and snap frozen with liquid nitrogen. The frozen tissue was ground thoroughly and homogenized in Ripa buffer supplemented with proteinase inhibitors. The protein concentration was determined by the Bio-Rad Dc Protein Assay™ according manufacturers instructions (Bio-Rad, Hercules, Calif.). Electrophoresis was performed under denaturing conditions according to Laemmli with 10% polyacrylamide gels by loading 35 μg protein. Proteins were transferred onto a polyvinyldifluoridine membrane (Immobilon P™; Millipore, Bedford, Mass.) by electroblotting. Proteins were then detected with rabbit polyclonal antibodies directed against human HO-1 (StressGen, Victoria, Canada) or β-tubulin (Boehringer Mannheim, Mannheim, Germany). Proteins were visualized using HRP-conjugated donkey anti-rabbit IgG or goat anti-mouse IgG (Pierce) and the ECL assay (Amersham Life Science, Arlington Heights, Ill.), according to manufacturer's instructions.
Semi-Quantitative PCR. RNA was extracted using RNeasy Mini Kits (Qiagen Inc., CA, USA) and reverse transcribed into cDNA with the RNA PCR Kit (TaKaRa, PanVera, Madison, Wis., USA). […] PCR products (10-20 μl) were analyzed in an ethidium bromide-stained 1% agarose gel.
Background: In western blotting, separated proteins are transferred to a membrane and probed.

Assay [5] concerns HO-1. Description: HO-1 expression in donor tissues and islets after CoPP. The class given is in vivo, mice. Conditions: CoPP given to the donor animal; heart, kidney, pancreas, liver and spleen. The protocol:
Induction of HO-1/Administration of biliverdin/bilirubin. When given to the donor, CoPPIX (20 mg/kg) was given 24 hours before islet isolation to induce HO-1 expression. To verify HO-1 expression in different organs after CoPP treatment, tissue samples are collected 24 hours after treatment and snap frozen in liquid nitrogen. Immunohistological analysis of HO-1 expression is performed using an anti-HO-1 antibody. CoPPIX (20 mg/kg) was administrated to the recipient intraperitoneally (i.p.) on day-1, 1, 3, 5 and 7. Biliverdin (50 μmol/kg) or bilirubin (8.5 μmol/kg) was given intraperitoneally to the donor one hour before islet isolation. For the recipient, biliverdin (50 μmol/kg) or bilirubin ([…]) was administered intraperitoneally either daily or twice per day from day-1 until day 13. No further treatment was given afterwards.
Semi-Quantitative PCR. RNA was extracted using Rneasy™ Mini Kits (Qiagen Inc., CA, USA) and reverse transcribed into cDNA with the RNA PCR Kit (TaKaRa, PanVera, Madison, Wis., USA). A total of 2 μg of cDNA was amplified in a 50 μl reaction mix containing 10 μM dNTPs, […] of 5′-prime and 3′-prime oligos, 2.5 U of LA-Taq polymerase (TaKaRa) and MgCl2, specific to each primer pair used. […] PCR products (10-20 μl) were analyzed in an ethidium bromide-stained 1% agarose gel.

Counter-ions that a name gives are not always drawn.

As for `C=CC1=C(C)/C(=C/C2=NC(=C\c3[nH]c(/C=C4\NC(=O)C(C)=C4C=C)c(C)c3CCC(=O)O)/C(CCC(=O)O)=C2C)NC1=O` [biliverdin, biliverdin dihydrochloride], the “alloantigen mediated T cell activation (proliferation)” value in assay [1] was “significant suppressive effect”. In addition, in assay [2], the “intestinal HO-1 production” value was “did not have a significant effect”. Moreover, the “mean serum nitrite/nitrate (NO) level” value in assay [3] (BV treated controls (no transplant)) turned out to be 18.4 ± 3.2 µM. Further, in assay [3] (SITx, 12 hours after engraftment), the “decrease of transplantation-induced serum NO levels” value was determined as 53%. In addition, the “serum NO level” value in assay [3] (SITx, 12 hours after engraftment, untreated 34.4±15.2) turned out to be 18.2 ± 3.9 µM.
For the molecule `C=CC1=C(C)c2cc3[n-]c(cc4nc(cc5[n-]c(cc1n2)c(C)c5CCC(=O)[O-])C(CCC(=O)[O-])=C4C)c(C)c3C=C.[Co+2].[H+].[H+]` [CoPP, Cobalt protoporphyrin], the “HO-1 protein in the intestine” value in assay [4] was “consistently high levels of HO-1 protein”. For the same molecule, in assay [5], the “HO-1 expression in donor tissues” value is on record as “HO-1 expression was observed in several different tissues”.
